{"source": "patent EP1232754A2", "about": "“Use of cationic helix peptides for treatment of sepsis and for detection and removal of endotoxins” (Commonwealth Biotechnologies, Inc., priority 2001, dated 2002)", "key": {"[1]": {"test": "Neutralization of endotoxin added to plasma or buffer, kinetic chromogenic Limulus Amebocyte Lysate endotoxin assay", "format": "biochemical", "description": "The presence of endotoxin may routinely be measured using, for example, a kinetic chromogenic method. The assay involves a complete set of enzyme reactions which are described in detail in the following publications, each of which is hereby incorporated by reference. Endosafe Limulus Amebocyte Lysate Endochrome-K™ package insert. (Endosafe, Charleston, SC) Pearson III, F., Pyrogens/Endotoxins, LAL Testing and Depyrogenation, 1985. Watson, S., Levin, J., and Novitsky, T., Progress in Clinical and Biological Research, Endotoxins and their detection with the Limulus Amebocyte Lysate Test, 93.\nIn the course of the endotoxin assay, a calibration curve is prepared which is a plot of logarithm of the time of the kinetic endpoint of a chromogenic reaction versus the logarithm of known concentrations of endotoxin.\nThus, if endotoxin is added to aqueous buffer solutions or to plasma the amount of endotoxin present can be assayed by reference to the calibration curve. Similarly, if plasma, plasma fractions, patient samples or any test solution contains an endogenous level of endotoxin, the level can also be determined by reference to the calibration curve.\nEndotoxin was purposely added to plasma to a final concentration of 10 ng/mL and increasing concentrations of the compounds Arg Helix #2 (a monomeric cationic helix peptide), Bis Arg Helix #2 (which contains 2 copies of Arg Helix #2), Tris Arg Helix #3 (which contains 3 copies of Arg Helix #3), Tetra Arg Helix #3 (4 copies of Arg Helix #3) or Tris Arg Helix #3 (constrained) (3 copies of Arg Helix #3 constrained by design to present a \"binding groove\" within the molecule) were added to these same samples (Table 1)."}, "E. coli (strain JM 109) [2]": {"tested_on": "E. coli (strain JM 109)", "test": "Neutralization of endotoxin presented by intact E. coli, endotoxin chromogenic assay", "format": "biochemical, Escherichia coli", "settings": "3e06 or 3e07 E. coli per mL; increasing peptide concentrations; within 10 min at 37°C (Figure 5)"}, "[3]": {"test": "Titration circular dichroism spectroscopy of endotoxin binding", "settings": "CD titration", "method": "Circular dichroism (CD) spectroscopy can be used to determine the fractional percent of secondary structural elements present in a peptide preparation. Titration CD spectroscopy can be used to assess the effect of binding a ligand on the reorganization of peptide structure (You, Scarsdale, and Harris 1991; Sobel, Soler, et al 1992; Soler, Sobel and Harris 1992; Tyler-Cross, Sobel et al 1993; Tyler-Cross, Sobel, Marques et al, 1994). Thus, incremental amounts of endotoxin were added to a solution of TR3 CONST and the effect of binding endotoxin by the peptide was assessed by CD spectroscopy.\nBy CD, Tris Arg Helix #3 (constrained) is 18% helix in solution (20°C) but complexation with endotoxin increases the helix character of the peptide to nearly 50% (Figure 3). Note that binding of endotoxin is dose dependent and saturable."}, "E. coli (strain JM 109) [4]": {"tested_on": "E. coli (strain JM 109)", "test": "Neutralization of endotoxin presented by intact E. coli, endotoxin chromogenic assay", "format": "biochemical, Escherichia coli", "settings": "TR3 CONST 200 µg/mL; for % neutralization / Endotoxin Equivalents: 10 min, 37°C", "method": "LPS is presented on the surface of gram-negative bacteria, such as Escherichia coli (E. coli). It was thus of interest to determine whether TR3 CONST would bind LPS present on whole bacterial cells. The assay method used was the endotoxin chromogenic assay as described above.\nThus, increasing amounts of E. coli (strain JM 109) were incubated (10 min; 37°C) in the presence or absence of 200 µg/mL TR3 CONST in 10 mM phosphate-150 mM NaCI-3 mM KCI buffer, pH 7.4. An aliquot of the incubation mixture was then assayed for residual endotoxin activity as previously described.\nEquivalent endotoxin concentrations are deduced by reference to the endotoxin calibration curve."}}, "note": "Bridges are numbered along the chain shown (N, C = ends). Roman numbers before positions name the chains, in order. [ ]: non-standard residue; d: D form. Dap = NC[C@H](N)C(=O)O", "data": [{"substance": "I: Ac-AEARARRAAARAARRAKKP[Dap]E-NH2 / II: Ac-AEARARRAAARAARRA / III: Ac-AEARARRAAARAARRA (amide I:18-II:C, I:20-III:C) [Tris Arg Helix #3 (constrained)]", "values": [{"measurement": "endotoxin quantitatively bound", "setting": "[1]; 1 mg/ml peptide, water or plasma solution", "result": "> 1", "unit": "µg/mL"}, {"measurement": "Percent Binding of", "setting": "[1]; Endotoxin 5, peptide 2.5 (ng/mL and mg/mL)", "result": 100, "unit": "%"}, {"measurement": "Percent Binding of", "setting": "[1]; Endotoxin 50, peptide 2.5 (ng/mL and mg/mL)", "result": 100, "unit": "%"}, {"measurement": "Percent Binding of", "setting": "[1]; Endotoxin 500, peptide 1.0 (ng/mL and mg/mL)", "result": "~100", "unit": "%"}, {"measurement": "neutralization of endotoxin added to aqueous samples", "setting": "[1]; aqueous samples, compared with plasma", "result": "same results were obtained"}, {"measurement": "neutralization of endotoxin as presented on the surface of E. coli", "setting": "E. coli (strain JM 109) [2]", "result": "dose dependent neutralization"}, {"measurement": "Kd", "setting": "[3]", "result": 0.87, "unit": "µM"}, {"measurement": "N, stoichiometry of binding (endotoxin:peptide)", "setting": "[3]", "result": 0.91}, {"measurement": "% neutralization", "setting": "E. coli (strain JM 109) [4]; E. coli 3e03 organisms/mL", "result": 100, "unit": "%"}, {"measurement": "Endotoxin Equivalents", "setting": "E. coli (strain JM 109) [4]; E. coli 3e03 organisms/mL", "result": 0.00, "unit": "ng/mL"}, {"measurement": "% neutralization", "setting": "E. coli (strain JM 109) [4]; E. coli 3e04 organisms/mL", "result": 100, "unit": "%"}, {"measurement": "Endotoxin Equivalents", "setting": "E. coli (strain JM 109) [4]; E. coli 3e04 organisms/mL", "result": 0.00, "unit": "ng/mL"}, {"measurement": "% neutralization", "setting": "E. coli (strain JM 109) [4]; E. coli 3e05 organisms/mL", "result": 100, "unit": "%"}, {"measurement": "Endotoxin Equivalents", "setting": "E. coli (strain JM 109) [4]; E. coli 3e05 organisms/mL", "result": 0.00, "unit": "ng/mL"}, {"measurement": "% neutralization", "setting": "E. coli (strain JM 109) [4]; E. coli 3e06 organisms/mL", "result": 87.9, "unit": "%"}, {"measurement": "Endotoxin Equivalents", "setting": "E. coli (strain JM 109) [4]; E. coli 3e06 organisms/mL", "result": 6.97, "unit": "ng/mL"}, {"measurement": "% neutralization", "setting": "E. coli (strain JM 109) [4]; E. coli 3e07 organisms/mL", "result": 48.8, "unit": "%"}, {"measurement": "Endotoxin Equivalents", "setting": "E. coli (strain JM 109) [4]; E. coli 3e07 organisms/mL", "result": 94.3, "unit": "ng/mL"}, {"measurement": "Endotoxin Equivalents", "setting": "E. coli (strain JM 109) [4]; E. coli 3e08 organisms/mL", "result": 440.0, "unit": "ng/mL"}, {"measurement": "neutralization of the endotoxin activity", "setting": "E. coli (strain JM 109) [4]; E. coli up to 3e06 organisms/mL", "result": "complete neutralization"}]}]}
